Source: patent US7868135B2, “Compositions of lipopeptide antibiotic derivatives and methods of use thereof” (priority 2003, dated 2011)
Read-outs that look alike come from different tables or passages of the source. Starred links: 1 amine or outer side, 2 acyl side, 3 side chain; linkers in the order of their positions; H or OH if unused. Positions of bridges follow the written chain, without caps; N, C: chain ends. Non-standard residues stand in square brackets, D forms with d. Residues, ends and D or L forms follow the SMILES beside them. ξ: configuration not given here. *: point of attachment. ξAbu(βξ-NH2) = CC(N[*:3])C(N[*:1])C(=O)[*:2]; ξAsp(βξ-Me) = CC(C(=O)O)C(N)C(=O)O; X2 = O=C(CCc1ccc(N[*:1])cc1)[*:2]; X1 = O=C(Cc1ccc(N[*:1])cc1)[*:2]; ξAbu(3ξ-NH2) = CC(N)C(N)C(=O)O; Lauroyl = CCCCCCCCCCCC(=O)*; Pip = O=C(O)[CH]1CCCCN1

Legend:
[1] = test system: S. aureus Smith (SAU0017, ATCC 19636); assay: Intraperitoneal murine model of protection against infection (ED50, Table 21); format: in vivo, Staphylococcus aureus; settings: Swiss CD1 mice infected i.p., compound i.v.
Description: (§1) A variety of in vivo models may be used to assess the antimicrobial properties of lipopeptide derivative compounds of this disclosure. For example, antimicrobial compounds of the instant disclosure may be tested for efficacy by measuring a compound's ability to protect a mouse against a microbial infection, such as an infection or disease caused by or related to Gram-positive bacteria, including Staphylococcus aureus, Streptococcus pneumoniae, and Enterococcus faecalis. […] A certain period after infection, mice are then individually treated, for example intravenously (i.v.), with a lipopeptide derivative of this disclosure.
(§2) Antimicrobial lipopeptide derivatives of the instant invention were tested for antimicrobial activity against Gram-positive bacteria in an intraperitoneal (i.p.) murine model (i.e., bacteria were injected i.p. and lipopeptide compounds were administered intravenously (i.v.)). Mice were infected with Staphylococcus aureus, Streptococcus pneumoniae, or Enterococcus faecalis, which were prepared as follows: S. aureus Smith (SAU0017, ATCC 19636) were grown in culture overnight on trypticase soy broth, harvested and then resuspended in fresh media containing 5% mucin (Sigma Chemical Co.); S. pneumoniae (SPN 0032, ATCC 10813) were grown overnight on blood agar plates and re-suspended in 0.9% sterile saline; and E. faecalis EFS0040 (clinical isolate) were grown overnight in culture on blood heart infusion broth, washed and resuspended in 0.9% saline and mixed with equal volume of sterile fecal rat extract. Swiss CD1 mice were each infected i.p. with bacteria at the following doses: S. aureus at 10^6 CFU/mouse; S. pneumoniae at 10^2 CFU/mouse; or E. faecalis at 10^7.5 CFU/mouse. […] The ED50 for each compound was calculated using the method of Reed and Meunch (Am. J. Hyg. 27: 493, 1938).

[2] = In vivo half-life after single i.v. administration, mice; settings: female, Swiss CD1, mouse, plasma, iv, 10 mg/kg
Experimental: Yet other exemplary in vivo models can be used to characterize the pharmacokinetics and pharmacodynamic parameters of antimicrobial compounds of this disclosure. Some parameters that can be measured include an in vivo half-life of a compound, elimination rate and clearance, volume of distribution, and bioavailability. For example, briefly, compounds can be administered as a single i.v. or oral (p.o.) dose in mice or rats. At various time points (ranging from 1 minute to 72 hours), blood from treated animals is collected and the concentration of lipopeptide derivative in the ex vivo plasma can be quantified by, for example, liquid chromatography with mass spectrometric detection (LC/MS). After quantification, pharmacokinetics parameters can be calculated using methods known in the art, such as a one compartment model with mono-exponential decay and linear regression analysis (see, e.g., Fantin et al., Antimicrob. Agents Chemotherap. 35: 1413. 1991).
A pharmacokinetic parameter that can be measured, and which aids in determining efficacy, after a single i.v. administration of an antimicrobial lipopeptide derivative of the instant disclosure is the systemic half-life of the compound. Briefly, test compounds were dissolved in a 5% mannitol solution (pH was then adjusted) to a concentration of 1 mg/mL (w/v). A single intravenous injection in the lateral caudal vein of Swiss CD1 mice (5 to 6 weeks old, female) or Sprague Dawley rats (male) was used to administer the lipopeptide derivative at a final dose of 10 mg/kg. At various time points (ranging from about 4 minutes to about 24 hours for mice, and 48 or 72 hours for rats) mice were sacrificed and blood was harvested. The concentration of lipopeptide derivative in ex vivo plasma was quantified using liquid chromatography (LC) with mass spectrometric detection (MS).

[3] = test system: Staphylococcus aureus (MSSA)
Method in brief: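 Broth microdilution MIC per NCCLS M7-A6 with doubling serial dilutions, in cation-adjusted Mueller-Hinton broth supplemented with 0.625 mM calcium.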

[4] = Acute toxicity, maximum tolerated dose (MTD); settings: Swiss CD1, mouse, in vivo, iv
Experimental: Another measure of toxicity is the maximum tolerated dose (MTD), which is determined as a dose level that is not accompanied by mortality or life-threatening toxicity. The dose ratio between toxic and therapeutic effect is the therapeutic index. […] The data obtained from these cell culture assays and animal studies can be used in formulating a dosage range that is not toxic for use in human subjects. […] The dosage may vary within this range depending upon the dosage form employed and the route of administration utilized. The exact formulation, route of administration and dosage can be chosen by the individual physician in view of the patient's condition or need thereof (see, e.g., Fingl et al., 1975, In: The Pharmacological Basis of Therapeutics, Chapter 1).
For example, to examine acute toxicity, lipopeptide antibiotics of the invention can be tested in an animal model, such as Swiss CD1 mice, to determine the MTD. In certain embodiments, the animals used to test toxicity of a particular compound can be approximately 5-6 weeks old at the start of the experiment and weigh 22-26 g. The lipopeptides may be administered intravenously (i.v.) into, for example, the caudal tail vein at dose levels that range from about 50 to about 500 mg/kg, or from about 75 to about 250 mg/kg, or from about 100 to about 200 mg/kg, or at a dose range at or below 100 mg/kg. The animals are generally observed immediately after administration, 1-2 hours post administration, 5-8 hours post administration, and once daily thereafter. Observations include both the activity level of the mouse as well as any physical side effects from the administered dose. The animal weight is recorded on day 0 (immediately before dosing) and on day 7.

[5] = test system: E. faecalis EFS0040 (clinical isolate); assay: Intraperitoneal murine model of protection against infection (ED50, Table 21); format: in vivo, Enterococcus faecalis; settings: Swiss CD1 mice infected i.p., compound i.v.
Description: as §1, §2

CCCCCCCCCCCCCC(=O)NC(CC(=O)O)C(=O)NC1C(=O)N2CCCCC2C(=O)NC(C(C)C(=O)O)C(=O)NC(CC(=O)O)C(=O)NCC(=O)NC(CC(=O)O)C(=O)NCC(=O)NC(C(C)NC(=O)CNC)C(=O)NC(C(C)C)C(=O)N2CCCC2C(=O)NC1C (stereo not shown) [Compound 60, C14-Amphomycin-9-Sar]
ED50 in Mice, S. aureus (SAU0017) [1]: 10 mg/kg | half-life [2]: 4.13 h | MIC ([3]; S. aureus (MSSA), CAMHB supplemented with 0.625 mM calcium, 24 hours at about 37° C., a range = compound tested multiple times): 60/0.5 μg/mL

CC(=O)Nc1ccc(C(=O)NC(CC(=O)O)C(=O)NC2C(=O)N3CCCCC3C(=O)NC(C(C)C(=O)O)C(=O)NC(CC(=O)O)C(=O)NCC(=O)NC(CC(=O)O)C(=O)NCC(=O)NC(C(C)N)C(=O)NC(C(C)C)C(=O)N3CCCC3C(=O)NC2C)cc1 (stereo not shown) [Compound 85, C2-PABA-Amphomycin]
ED50 in Mice, S. aureus (SAU0017) [1]: 6.5 mg/kg | MTD at 7 days [4]: 50 to 200 mg/kg | half-life [2]: 5.17 h | ED50 in Mice, E. faecalis (EFS0040) [5]: 5.7 mg/kg | MIC ([3]; 24 h): 2 to 4 µg/mL

CCCCCCCCCCCC(=O)Nc1ccc(CCC(=O)NC(CC(=O)O)C(=O)NC2C(=O)N3CCCCC3C(=O)NC(C(C)C(=O)O)C(=O)NC(CC(=O)O)C(=O)NCC(=O)NC(CC(=O)O)C(=O)NCC(=O)NC(C(C)N)C(=O)NC(C(C)C)C(=O)N3CCCC3C(=O)NC2C)cc1 (stereo not drawn) [Compound 108, C12-(p-Aminophenylpropanoyl)-Amphomycin] (Lauroyl-[X2]D[ξAbu(βξ-NH2)][Pip][ξAsp(βξ-Me)]DGDG[ξAbu(3ξ-NH2)]VP; lactam 3-C; configuration not given here)
ED50 in Mice, S. aureus (SAU0017) [1]: 6.5 mg/kg | MTD at 7 days [4]: 50 to 200 mg/kg | half-life [2]: 4.55 h | MIC ([3]; 24 h): 0.5 µg/mL

CCCCCCCCCCCC(=O)Nc1ccc(CC(=O)NC(CC(=O)O)C(=O)NC2C(=O)N3CCCCC3C(=O)NC(C(C)C(=O)O)C(=O)NC(CC(=O)O)C(=O)NCC(=O)NC(CC(=O)O)C(=O)NCC(=O)NC(C(C)N)C(=O)NC(C(C)C)C(=O)N3CCCC3C(=O)NC2C)cc1 (stereo not drawn) [Compound 119, C12-(p-Apa)-Amphomycin] (Lauroyl-[X1]D[ξAbu(βξ-NH2)][Pip][ξAsp(βξ-Me)]DGDG[ξAbu(3ξ-NH2)]VP; lactam 3-C; configuration not given here)
ED50 in Mice, S. aureus (SAU0017) [1]: 7.6 mg/kg | MTD at 7 days [4]: 50 to 200 mg/kg | half-life [2]: 4.22 h | MIC ([3]; 24 h): 0.25 µg/mL
